US10316038B2, “Pyrrolopyrimidine ITK inhibitors for treating inflammation and cancer” (ACLARIS THERAPEUTICS, INC., priority 2017, dated 2019)

Key:
[1] = biological target: T1, ITK (Homo sapiens, UniProt Q08881); assay: ITK inhibitor binding potency (LanthaScreen competitive binding assay); conditions: TR-FRET competitive binding, 10 nM ITK, 50 nM kinase tracer-236; pre-incubation condition not given; read-out: ITK Inhibition IC50
T1 sequence (Q08881 1-620): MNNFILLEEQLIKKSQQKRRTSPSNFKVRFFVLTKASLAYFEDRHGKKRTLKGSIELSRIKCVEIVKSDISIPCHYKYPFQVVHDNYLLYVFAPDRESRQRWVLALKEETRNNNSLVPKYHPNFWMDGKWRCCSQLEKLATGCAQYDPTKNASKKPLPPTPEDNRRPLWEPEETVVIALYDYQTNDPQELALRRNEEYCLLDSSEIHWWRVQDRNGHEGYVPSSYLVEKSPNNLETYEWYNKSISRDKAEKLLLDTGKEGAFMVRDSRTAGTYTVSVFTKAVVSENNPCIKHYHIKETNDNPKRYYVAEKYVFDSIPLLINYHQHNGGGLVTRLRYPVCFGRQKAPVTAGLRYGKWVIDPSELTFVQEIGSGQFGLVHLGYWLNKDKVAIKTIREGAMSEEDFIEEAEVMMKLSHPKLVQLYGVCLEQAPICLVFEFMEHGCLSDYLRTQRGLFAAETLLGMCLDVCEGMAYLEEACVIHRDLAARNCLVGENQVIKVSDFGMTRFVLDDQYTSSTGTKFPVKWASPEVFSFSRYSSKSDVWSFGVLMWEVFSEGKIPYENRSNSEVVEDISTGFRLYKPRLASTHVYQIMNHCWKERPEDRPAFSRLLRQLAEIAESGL
Excerpt: The ability of candidate compounds to interact with ITK is quantitated by a competitive binding assay using the LanthaScreen technology developed by Life Technologies. This assay is based on the binding of a proprietary, Alexa Fluor™ 647-labeled, ATP-competitive kinase inhibitor (kinase tracer-236) to the ITK expression construct in the presence of a Europium-conjugated antibody, resulting in a FRET (fluorescence resonance energy transfer) signal. Displacement of the kinase tracer by compound results in a lower emission ratio upon excitation of the Europium chelate. Candidate compounds are designed as potential irreversible inhibitors of ITK, capable of ligating to an active site cysteine residue resulting in time dependent covalent binding. The time dependent nature of irreversible inhibition is investigated by performing the binding assay with and without a pre-incubation of compound and ITK. […] The inhibitory potency of candidate compounds is measured in 20 mM HEPES pH 7.5, 10 mM MgCl2, 0.01% BSA, 0.0005% Tween-20, and 2% DMSO in the presence of 10 nM ITK, 2 nM Eu-anti-GST antibody, and 50 nM kinase tracer-236 using a 384-well plate format. Background signal is defined in the absence of ITK and uninhibited signal is defined in the presence of vehicle (2% DMSO) alone. Compounds were evaluated in an 11 point dose-response ranging from 20 uM to 0.34 nM. The binding assays are performed under two preincubation conditions to evaluate time dependence of inhibition. For the pre-incubation assay, ITK and Eu-anti-GST antibody are pre-incubated with compound or vehicle for two hours prior to the addition of kinase tracer. The non-preincubated assay is run under conditions where ITK and Eu-anti-GST antibody are added to a mixture of compound and kinase tracer. IC50 values of compounds are determined using a 4 parameter logistical fit of emission ratio as a function of the concentration of compound.

[2] = test system: ITK phosphorylation of its substrate, PLCγ1, at Y783; assay: ITK target modulation assay (phospho-Y783 PLCγ1 immunoblot in Jurkat T cells); format: cell-based; conditions: Homo sapiens, Jurkat, 2 h, 2 hours compound, CD3/CD28 Dynabeads stimulation 100 sec, anti-phospho-Y783 PLCγ1 immunoblot, read-out: PLC-γ Inhibition IC50
Method: Target modulation was based upon the ability of a compound to inhibit ITK phosphorylation of its substrate, PLCγ1, at […]. Human Jurkat T cells were placed in snap-cap polypropylene tubes at 4 million per tube in 800 μL medium (RPMI1640 with 10% heat inactivated serum and […] 2-mercaptoethanol and supplemented with glutamine/penicillin/streptomycin). Compounds were added as 100 μL of 10× working stock solutions in medium with 1% DMSO (or medium with 1% DMSO for controls) and placed in a 37° C. incubator for 2 hours. Stimulation was carried out using CD3/CD28 Dynabeads to activate the T cell receptor and mimic antigen presenting cells. Beads were added for 100 sec at a ratio of 1 bead per cell, in 100 μL medium (or medium alone for unstimulated control). Starting at 70 sec, cells and beads were pelleted in a microfuge for 15 sec, the supernatant aspirated, and 50 μL lysis buffer was added per tube and mixed with the pellet at the 100 sec time point. Tubes were placed on a rotator for 30 min at 4° C., and cell debris was pelleted in a microfuge. Supernatant was mixed 1:1 with 2× Sample Buffer and subjected to SDS-polyacrylamide gel electrophoresis. After transfer to nitrocellulose, immunoblotting was done with anti-phospho-[…] PLCγ1 antibody. Immunoblots were visualized with ECL using horseradish peroxidase conjugated secondary antibody.

## CN(C)C/C=C/C(=O)Nc1cc(-c2cnc3[nH]cc(-c4cccc(C#N)c4)c3c2)cc(C(F)(F)F)c1 [Example 1, (E)-N-(3-(3-(3-Cyanophenyl)-1H-pyrrolo[2,3-b]pyridin-5-yl)-5-(trifluoromethyl)phenyl)-4-(dimethylamino)but-2-enamide]
[1]
  IC50: ≤ 100 nM
[2]
  IC50: ≤ 1000 nM

## C=CC(=O)N(C)c1cccc(-c2cnc3[nH]cc(-c4ccnc(OC)c4)c3c2)c1 [Example 2, N-(3-(3-(2-Methoxypyridin-4-yl)-1H-pyrrolo[2,3-b]pyridin-5-yl)phenyl)-N-methylacrylamide]
[1]
  IC50: ≤ 100 nM
[2]
  IC50: 1000 to 5000 nM

## C=CC(=O)Nc1cc(-c2cnc3[nH]cc(-c4ccnc(NC)n4)c3c2)cc(C(F)(F)F)c1 [Example 3, N-(3-(3-(2-(Methylamino)pyrimidin-4-yl)-1H-pyrrolo[2,3-b]pyridin-5-yl)-5-(trifluoromethyl)phenyl)acrylamide]
[1]
  IC50: ≤ 100 nM
[2]
  IC50: ≤ 1000 nM

## CN(C)C/C=C/C(=O)Nc1cncc(-c2cnc3[nH]cc(-c4ccnc(C#N)c4)c3c2)c1 [Example 4, (E)-N-(5-(3-(2-Cyanopyridin-4-yl)-1H-pyrrolo[2,3-b]pyridin-5-yl)pyridin-3-yl)-4-(dimethylamino)but-2-enamide]
[1]
  IC50: ≤ 100 nM
[2]
  IC50: ≤ 1000 nM

## C=CC(=O)Nc1cc(-c2cnc3[nH]cc(-c4cccc(C#N)c4)c3c2)cnc1OC1CCOC1 (stereo not shown) [Example 5, N-(5-(3-(3-Cyanophenyl)-1H-pyrrolo[2,3-b]pyridin-5-yl)-2-((tetrahydrofuran-3-yl)oxy)pyridin-3-yl)acrylamide]
[1]
  IC50: ≤ 100 nM
[2]
  IC50: 1000 to 5000 nM

## CN(C)C/C=C/C(=O)Nc1cccc(-c2cnc3[nH]cc(-c4cn(C)c(=O)c5[nH]ccc45)c3c2)c1 [Example 6, (E)-4-(dimethyl-amino)-N-(3-(3-(6-methyl-7-oxo-6,7-dihydro-1H-pyrrolo[2,3-c]-pyridin-4-yl)-1H-pyrrolo[2,3-b]-pyridin-5-yl)-phenyl)but-2-enamide]
[1]
  IC50: ≤ 100 nM
[2]
  IC50: > 5000 nM

## C=CC(=O)Nc1cc(-c2cnc3[nH]cc(-c4cccc(C#N)c4)c3c2)cc(C(F)(F)F)c1 [Example 7, N-(3-(3-(3-cyano-phenyl)-1H-pyrrolo[2,3-b]-pyridin-5-yl)-5-(trifluoromethyl)-phenyl)acrylamide]
[1]
  IC50: ≤ 1000 nM
[2]
  IC50: ≤ 1000 nM

## C=CC(=O)Nc1cccc(-c2cnc3[nH]cc(-c4cncc(C#N)c4)c3c2)c1 [Example 8, N-(3-(3-(5-cyano-pyridin-3-yl)-1H-pyrrolo[2,3-b]-pyridin-5-yl)-phenyl)acrylamide]
[1]
  IC50: ≤ 100 nM
[2]
  IC50: 1000 to 5000 nM

## C=CC(=O)Nc1cccc(-c2cnc3[nH]cc(-c4cncc(C(N)=O)c4)c3c2)c1 [Example 9, 5-(5-(3-acryl-amidophenyl)-1H-pyrrolo[2,3-b]-pyridin-3-yl)-nicotinamide]
[1]
  IC50: ≤ 100 nM
[2]
  IC50: > 5000 nM

## CN(C)C/C=C/C(=O)Nc1cccc(-c2cnc3[nH]cc(-c4cncc(C(N)=O)c4)c3c2)c1 [Example 10, (E)-5-(5-(3-(4-(dimethylamino)-but-2-enamido)-phenyl)-1H-pyrrolo[2,3-b]-pyridin-3-yl)-nicotinamide]
[1]
  IC50: ≤ 100 nM
[2]
  IC50: > 5000 nM

## CN(C)C/C=C/C(=O)Nc1cccc(-c2cnc3[nH]cc(-c4cncc(C#N)c4)c3c2)c1 [Example 11, (E)-N-(3-(3-(5-cyanopyridin-3-yl)-1H-pyrrolo-[2,3-b]pyridin-5-yl)phenyl)-4-(dimethylamino)-but-2-enamide]
[1]
  IC50: ≤ 100 nM
[2]
  IC50: > 5000 nM

## C=CC(=O)Nc1cc(-c2cnc3[nH]cc(-c4cncc(C#N)c4)c3c2)cc(C(F)(F)F)c1 [Example 12, N-(3-(3-(5-cyano-pyridin-3-yl)-1H-pyrrolo[2,3-b]-pyridin-5-yl)-5-(trifluoromethyl)-phenyl)acrylamide]
[1]
  IC50: ≤ 100 nM
[2]
  IC50: ≤ 1000 nM

## Cc1cc2c(-c3c[nH]c4ncc(-c5cc(NC(=O)/C=C/CN(C)C)cc(C(F)(F)F)c5)cc34)ccnc2[nH]1 [Example 14, (E)-4-(dimethyl-amino)-N-(3-(2′-methyl-1H,1′H-[3,4′-bipyrrolo-[2,3-b]pyridin]-5-yl)-5-(trifluoro-methyl)phenyl)-but-2-enamide]
[1]
  IC50: ≤ 100 nM
[2]
  IC50: ≤ 1000 nM

## C=CC(=O)Nc1cc(OC)cc(-c2cnc3[nH]cc(-c4ccnc5[nH]ccc45)c3c2)c1 [Example 15, N-(3-(1H,1′H-[3,4′-bipyrrolo-[2,3-b]pyridin]-5-yl)-5-methoxy-phenyl)acrylamide]
[1]
  IC50: ≤ 100 nM
[2]
  IC50: ≤ 1000 nM

## C=CC(=O)Nc1cc(OC)cc(-c2cnc3[nH]cc(-c4cccc(C#N)c4)c3c2)c1 [Example 16, N-(3-(3-(3-cyano-phenyl)-1H-pyrrolo[2,3-b]-pyridin-5-yl)-5-methoxyphenyl)-acrylamide]
[1]
  IC50: ≤ 100 nM
[2]
  IC50: ≤ 1000 nM

## C=CC(=O)Nc1cncc(-c2cnc3[nH]cc(-c4ccnc(OC)c4)c3c2)c1 [Example 17, N-(5-(3-(2-methoxypyridin-4-yl)-1H-pyrrolo-[2,3-b]pyridin-5-yl)pyridin-3-yl)-acrylamide]
[1]
  IC50: ≤ 100 nM
[2]
  IC50: ≤ 1000 nM

## C=CC(=O)Nc1cc(-c2cnc3[nH]cc(-c4cccc(C#N)c4)c3c2)cc(-c2cnn(C)c2)c1 [Example 18, N-(3-(3-(3-cyano-phenyl)-1H-pyrrolo[2,3-b]-pyridin-5-yl)-5-(1-methyl-1H-pyrazol-4-yl)-phenyl)acrylamide]
[1]
  IC50: ≤ 100 nM
[2]
  IC50: ≤ 1000 nM

## COc1cc(NC(=O)/C=C/CN(C)C)cc(-c2cnc3[nH]cc(-c4cccc(C#N)c4)c3c2)c1 [Example 19, (E)-N-(3-(3-(3-cyanophenyl)-1H-pyrrolo[2,3-b]-pyridin-5-yl)-5-methoxyphenyl)-4-(dimethyl-amino)but-2-enamide]
[1]
  IC50: ≤ 100 nM
[2]
  IC50: ≤ 1000 nM

## COc1cc(-c2c[nH]c3ncc(-c4cncc(N(C)C(=O)/C=C/CN(C)C)c4)cc23)ccn1 [Example 73, (E)-4-(dimethyl-amino)-N-(5-(3-(2-methoxypyridin-4-yl)-1H-pyrrolo-[2,3-b]pyridin-5-yl)pyridin-3-yl)-N-methylbut-2-enamide]
[2]
  IC50: ≤ 1000 nM

## CN(C)C/C=C/C(=O)N(C)c1cncc(-c2cnc3[nH]cc(-c4ccnc(F)c4)c3c2)c1 [Example 74, (E)-4-(dimethyl-amino)-N-(5-(3-(2-fluoropyridin-4-yl)-1H-pyrrolo-[2,3-b]pyridin-5-yl)pyridin-3-yl)-N-methylbut-2-enamide]
[2]
  IC50: ≤ 1000 nM

## C=CC(=O)Nc1cc(C)cc(-c2cnc3[nH]cc(-c4cccc(C#N)c4)c3c2)c1 [Example 75, N-(3-(3-(3-cyano-phenyl)-1H-pyrrolo[2,3-b]-pyridin-5-yl)-5-methylphenyl)-acrylamide]
[2]
  IC50: 1000 to 5000 nM

## Cc1cc(NC(=O)/C=C/CN(C)C)cc(-c2cnc3[nH]cc(-c4cccc(C#N)c4)c3c2)c1 [Example 76, (E)-N-(3-(3-(3-cyanophenyl)-1H-pyrrolo[2,3-b]-pyridin-5-yl)-5-methylphenyl)-4-(dimethyl-amino)but-2-enamide]
[2]
  IC50: 1000 to 5000 nM
